Laboratory results reported in patent publication US10647591B2, “High-magnesium concentrated liquid” (QUALITY PURE CO., LTD., priority 2016, dated 2020).

Assays:
ovariectomized rats [1] = test: serum test (ALP, BUN, CRE, GOT, GPT) of ovariectomized rats fed with the test agents; conditions: Comparison 2 (OVXC): ovariectomized rats, calcium citrate 0.5 g/kg, no liquid
Procedure: (§1) Owing to hormone variation, menopausal females lose their bones fast and suffer from osteoporosis easily. The rats used in the experiment groups, control group, and comparison groups are female Sprague-Dawley rats. The rats are fed with different proportions of the high-magnesium potable water beforehand. Then, the serum and tissue slices of the rats are analyzed.
(§2) The dosages of the high-magnesium concentrated liquid fed to the rats in experiment groups, control group and comparison groups are shown in Table.1. The unit of the dosage is milliliter or gram per kilogram of body weight. The control group is the group of unovariectomized rats. The supply of calcium citrate is to learn the influence of calcium on osteoporosis.

ovariectomized rats [2] = test: Micro-CT bone density and trabecula images of ovariectomized rats; assay type: in vivo, female Sprague-Dawley rats; conditions: Comparison Group II, calcium citrate 0.5 g/kg, no liquid
Procedure: as §1, §2
FIGS. 2A-2F are respectively the images of the bone densities of the rats of Experiment Group I, Experiment Group II, Experiment Group III, Control Group, Comparison Group I, and Comparison Group II. FIGS. 3A-3F are respectively the trabecula images of the rats of Experiment Group I, Experiment Group II, Experiment Group III, Control Group, Comparison Group I, and Comparison Group II.

ovariectomized rats [3] = test: serum test (calcium, magnesium, potassium, sodium, phosphor) of ovariectomized rats fed with the test agents; conditions: Comparison 2 (OVXC): ovariectomized rats, calcium citrate 0.5 g/kg, no liquid
Procedure: as §1, §2

O=C([O-])CC(O)(CC(=O)[O-])C(=O)[O-].O=C([O-])CC(O)(CC(=O)[O-])C(=O)[O-].[Ca+2].[Ca+2].[Ca+2] [Calcium Citrate, calcium citrate]
ALP in serum (ovariectomized rats [1]): 130 U/L | BUN in serum (ovariectomized rats [1]): 17 mg/dL | CRE in serum (ovariectomized rats [1]): 0.85 mg/dL | GOT in serum (ovariectomized rats [1]): 75 U/L | GPT in serum (ovariectomized rats [1]): 75 U/L | bone density (Micro-CT images) (ovariectomized rats [2]; FIG. 2F): lower bone density | trabecula distribution (Micro-CT images) (ovariectomized rats [2]; FIG. 3F): less compact trabecula distribution | Calcium in serum (ovariectomized rats [3]): 12.4 mg/dL | Phosphor in serum (ovariectomized rats [3]): 8 mg/dL | Potassium in serum (ovariectomized rats [3]): 5.8 mmol/L | Sodium in serum (ovariectomized rats [3]): 143 mmol/L
